Some results are limits rather than exact numbers.

Here are results for 20 compounds from US12195482B1 (Arcus Biosciences, Inc., priority 2022, dated 2025).

For the assay, the target named is T1, p-AXL (Homo sapiens, UniProt P30530).
T1 construct: expressed in transfected cells; host or cells: HEK293T
T1 sequence (P30530 26-894): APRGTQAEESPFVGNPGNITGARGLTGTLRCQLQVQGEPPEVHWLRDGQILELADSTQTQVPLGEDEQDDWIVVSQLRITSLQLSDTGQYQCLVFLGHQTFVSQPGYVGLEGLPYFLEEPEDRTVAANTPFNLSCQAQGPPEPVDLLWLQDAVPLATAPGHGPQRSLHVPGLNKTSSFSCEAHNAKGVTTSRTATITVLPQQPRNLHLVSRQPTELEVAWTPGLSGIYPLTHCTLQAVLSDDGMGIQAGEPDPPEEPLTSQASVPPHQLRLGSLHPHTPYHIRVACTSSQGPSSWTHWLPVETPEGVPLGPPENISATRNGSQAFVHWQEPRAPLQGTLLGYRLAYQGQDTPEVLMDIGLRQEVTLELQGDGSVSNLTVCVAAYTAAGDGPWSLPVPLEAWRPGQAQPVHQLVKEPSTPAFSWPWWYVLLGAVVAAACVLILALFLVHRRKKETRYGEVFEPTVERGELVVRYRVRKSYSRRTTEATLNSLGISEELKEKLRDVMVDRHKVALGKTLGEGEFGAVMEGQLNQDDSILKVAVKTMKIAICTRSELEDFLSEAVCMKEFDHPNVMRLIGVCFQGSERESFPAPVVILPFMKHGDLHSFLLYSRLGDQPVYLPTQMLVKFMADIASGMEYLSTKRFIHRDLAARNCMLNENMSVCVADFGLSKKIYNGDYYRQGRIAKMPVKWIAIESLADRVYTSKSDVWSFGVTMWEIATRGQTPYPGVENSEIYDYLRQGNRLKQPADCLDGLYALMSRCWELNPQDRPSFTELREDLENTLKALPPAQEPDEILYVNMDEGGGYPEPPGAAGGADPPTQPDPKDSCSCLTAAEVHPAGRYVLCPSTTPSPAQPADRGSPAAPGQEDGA
The experiment in a line: Axl phosphorylation inhibition ELISA in HEK293T cells transfected with NanoLuc-tagged AXL. It counts as cell-based. Conditions: 1 h compound incubation, media (OptiMEM). The gist of the method: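 HEK293T cells transiently transfected one day earlier with NanoLuc-tagged AXL were exposed to 22-point 2-fold compound dilutions for 1 h at 37° C (70,000 cells/well), then lysed. Lysates captured on anti-phospho-tyrosine coated plates for 2 h; bound p-AXL read by NanoLuc luminescence; IC50 from 4-parameter logistic fit.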
(ELISA stands for enzyme-linked immunosorbent assay.)

In the case of `Cc1ccccc1-c1ccc(-c2c[nH]c3ncc(-c4ccc5c(c4)CC[C@@H](N4C6COCC4C6)CC5)cc23)nc1` [Example 97, 6-[(7S)-2-{3-[5-(2-Methylphenyl)pyridin-2-yl]-1H-pyrrolo[2,3-b]pyridin-5-yl}-6,7,8,9-tetrahydro-5H-benzo[7]annulen-7-yl]-3-oxa-6-azabicyclo[3.1.1]heptane], the IC50 was above 1000 nM. Turning to `Cc1ccccc1-c1ccc(-c2n[nH]c3ncc(-c4ccc5c(c4)CC[C@@H](N4C6COCC4C6)CC5)cc23)nc1` [Example 98, 6-[(7S)-2-{3-[5-(2-Methylphenyl)pyridin-2-yl]-1H-pyrazolo[3,4-b]pyridin-5-yl}-6,7,8,9-tetrahydro-5H-benzo[7]annulen-7-yl]-3-oxa-6-azabicyclo[3.1.1]heptane], the IC50 lay in the range of 100 to 1000 nM. Consider `FC(F)Oc1cccnc1-c1ccc(-c2n[nH]c3ncc(-c4ccc5c(c4)CC[C@@H](N4C6COCC4C6)CC5)cc23)cc1` [Example 99, 6-[(7S)-2-(3-{4-[3-(Difluoromethoxy)pyridin-2-yl]phenyl}-1H-pyrazolo[3,4-b]pyridin-5-yl)-6,7,8,9-tetrahydro-5H-benzo[7]annulen-7-yl]-3-oxa-6-azabicyclo[3.1.1]heptane], for which the IC50 is below 100 nM.

Consider `CC(C)(O)c1cccnc1-c1ccc(-c2n[nH]c3ncc(-c4ccc5c(c4)CC[C@@H](N4C6COCC4C6)CC5)cc23)nc1` [Example 100, 2-(6′-{5-[(7S)-7-{3-Oxa-6-azabicyclo[3.1.1]heptan-6-yl}-6,7,8,9-tetrahydro-5H-benzo[7]annulen-2-yl]-1H-pyrazolo[3,4-b]pyridin-3-yl}-[2,3′-bipyridin]-3-yl)propan-2-ol], for which the IC50 was below 100 nM. In turn, `CS(=O)(=O)c1cccnc1-c1ccc(-c2n[nH]c3ncc(-c4ccc5c(c4)CC[C@@H](N4C6COCC4C6)CC5)cc23)cc1` [Example 101, 6-[(7S)-2-{3-[4-(3-Methanesulfonylpyridin-2-yl)phenyl]-1H-pyrazolo[3,4-b]pyridin-5-yl}-6,7,8,9-tetrahydro-5H-benzo[7]annulen-7-yl]-3-oxa-6-azabicyclo[3.1.1]heptane] came in with an IC50 below 100 nM.

Turning to `CS(=O)(=O)c1cccnc1-c1ccc(-c2c[nH]c3ncc(-c4ccc5c(c4)CC[C@@H](N4C6COCC4C6)CC5)cc23)cc1` [Example 102, 6-[(7S)-2-{3-[4-(3-Methanesulfonylpyridin-2-yl)phenyl]-1H-pyrrolo[2,3-b]pyridin-5-yl}-6,7,8,9-tetrahydro-5H-benzo[7]annulen-7-yl]-3-oxa-6-azabicyclo[3.1.1]heptane], the IC50 was below 100 nM. The same measure for `FC(F)(F)Oc1cccnc1-c1ccc(-c2c[nH]c3ncc(-c4ccc5c(c4)CC[C@@H](N4C6COCC4C6)CC5)cc23)cc1` [Example 103, 6-[(7S)-2-(3-{4-[3-(Trifluoromethoxy)pyridin-2-yl]phenyl}-1H-pyrrolo[2,3-b]pyridin-5-yl)-6,7,8,9-tetrahydro-5H-benzo[7]annulen-7-yl]-3-oxa-6-azabicyclo[3.1.1]heptane]: above 1000 nM; for `c1cnc(-c2ccc(-c3n[nH]c4ncc(-c5ccc6c(c5)CC[C@@H](N5C7COCC5C7)CC6)cc34)cc2)c(O[C@@H]2CCOC2)c1` [Example 104, 6-[(7S)-2-[3-(4-{3-[(3R)—Oxolan-3-yloxy]pyridin-2-yl}phenyl)-1H-pyrazolo[3,4-b]pyridin-5-yl]-6,7,8,9-tetrahydro-5H-benzo[7]annulen-7-yl]-3-oxa-6-azabicyclo[3.1.1]heptane]: below 100 nM. Compound `Cc1cccnc1-c1ccc(-c2n[nH]c3ncc(-c4ccc5c(c4)CC[C@@](C)(N4CCC[C@H]4C)CC5)cc23)nc1` [Example 105, 3-Methyl-6′-{5-[(7S)-7-methyl-7-[(2R)-2-methylpyrrolidin-1-yl]-6,7,8,9-tetrahydro-5H-benzo[7]annulen-2-yl]-1H-pyrazolo[3,4-b]pyridin-3-yl}-2,3′-bipyridine] registered an IC50 below 100 nM. Regarding `Cn1nccc1-c1ccc(-c2n[nH]c3ncc(-c4ccc5c(c4)CC[C@@H](N4C6COCC4C6)CC5)cc23)cc1` [Example 109, 6-[(7S)-2-{3-[4-(1-Methyl-1H-pyrazol-5-yl)phenyl]-1H-pyrazolo[3,4-b]pyridin-5-yl}-6,7,8,9-tetrahydro-5H-benzo[7]annulen-7-yl]-3-oxa-6-azabicyclo[3.1.1]heptane], the IC50 was below 100 nM. Regarding `Cn1ncnc1-c1ccc(-c2n[nH]c3ncc(-c4ccc5c(c4)CC[C@@H](N4C6COCC4C6)CC5)cc23)cc1` [Example 110, 6-[(7S)-2-{3-[4-(1-Methyl-1H-1,2,4-triazol-5-yl)phenyl]-2H-pyrazolo[3,4-b]pyridin-5-yl}-6,7,8,9-tetrahydro-5H-benzo[7]annulen-7-yl]-3-oxa-6-azabicyclo[3.1.1]heptane], the IC50 is below 100 nM. Next, `Cn1ccnc1-c1ccc(-c2n[nH]c3ncc(-c4ccc5c(c4)CC[C@@H](N4C6COCC4C6)CC5)cc23)cc1` [Example 111, 6-[(7S)-2-{3-[4-(1-Methyl-1H-imidazol-2-yl)phenyl]-1H-pyrazolo[3,4-b]pyridin-5-yl}-6,7,8,9-tetrahydro-5H-benzo[7]annulen-7-yl]-3-oxa-6-azabicyclo[3.1.1]heptane]: below 100 nM; `C[C@@H]1CCCN1[C@@]1(C)CCc2ccc(-c3cnc4[nH]nc(-c5ccc(-c6ncnn6C)cc5)c4c3)cc2CC1` [Example 112, 1-Methyl-5-(4-{5-[(7S)-7-methyl-7-[(2R)-2-methylpyrrolidin-1-yl]-6,7,8,9-tetrahydro-5H-benzo[7]annulen-2-yl]-1H-pyrazolo[3,4-b]pyridin-3-yl}phenyl)-1H-1,2,4-triazole]: below 100 nM. `CC(C)(O)c1ccccc1-c1ccc(-c2n[nH]c3ncc(-c4ccc5c(c4)CC[C@@H](N4C6COCC4C6)CC5)cc23)cn1` [Example 113, 2-[2-(5-{5-[(7S)-7-{3-Oxa-6-azabicyclo[3.1.1]heptan-6-yl}-6,7,8,9-tetrahydro-5H-benzo[7]annulen-2-yl]-1H-pyrazolo[3,4-b]pyridin-3-yl}pyridin-2-yl)phenyl]propan-2-ol]: the IC50 is below 100 nM.

`CC(C)(O)c1ccccc1-c1ccc(-c2c[nH]c3ncc(-c4ccc5c(c4)CC[C@@H](N4C6COCC4C6)CC5)cc23)cn1` [Example 114, 2-[2-(5-{5-[(7S)-7-{3-Oxa-6-azabicyclo[3.1.1]heptan-6-yl}-6,7,8,9-tetrahydro-5H-benzo[7]annulen-2-yl]-1H-pyrrolo[2,3-b]pyridin-3-yl}pyridin-2-yl)phenyl]propan-2-ol] had an IC50 below 100 nM. The same measure for `Cc1ccc(-c2ccc(-c3n[nH]c4ncc(-c5ccc6c(c5)CC[C@@H](N5C7COCC5C7)CC6)cc34)cc2)nc1` [Example 115, 6-[(7S)-2-{3-[4-(5-Methylpyridin-2-yl)phenyl]-1H-pyrazolo[3,4-b]pyridin-5-yl}-6,7,8,9-tetrahydro-5H-benzo[7]annulen-7-yl]-3-oxa-6-azabicyclo[3.1.1]heptane]: 100 to 1000 nM; for `Cc1cccc(-c2ccc(-c3n[nH]c4ncc(-c5ccc6c(c5)CC[C@@H](N5C7COCC5C7)CC6)cc34)cc2)n1` [Example 116, 6-[(7S)-2-{3-[4-(6-Methylpyridin-2-yl)phenyl]-1H-pyrazolo[3,4-b]pyridin-5-yl}-6,7,8,9-tetrahydro-5H-benzo[7]annulen-7-yl]-3-oxa-6-azabicyclo[3.1.1]heptane]: 100 to 1000 nM. Next, `Cc1ccnc(-c2ccc(-c3n[nH]c4ncc(-c5ccc6c(c5)CC[C@@H](N5C7COCC5C7)CC6)cc34)cc2)c1` [Example 117, 6-[(7S)-2-{3-[4-(4-Methylpyridin-2-yl)phenyl]-1H-pyrazolo[3,4-b]pyridin-5-yl}-6,7,8,9-tetrahydro-5H-benzo[7]annulen-7-yl]-3-oxa-6-azabicyclo[3.1.1]heptane]: 100 to 1000 nM; `Cc1ccnc(-c2ccc(-c3n[nH]c4ncc(-c5ccc6c(c5)CC[C@@H](N5C7COCC5C7)CC6)cc34)cc2)c1C` [Example 118, 6-[(7S)-2-{3-[4-(3,4-Dimethylpyridin-2-yl)phenyl]-1H-pyrazolo[3,4-b]pyridin-5-yl}-6,7,8,9-tetrahydro-5H-benzo[7]annulen-7-yl]-3-oxa-6-azabicyclo[3.1.1]heptane]: below 100 nM; `Cc1cnc(-c2ccc(-c3n[nH]c4ncc(-c5ccc6c(c5)CC[C@@H](N5C7COCC5C7)CC6)cc34)cc2)c(C)c1` [Example 119, 6-[(7S)-2-{3-[4-(3,5-Dimethylpyridin-2-yl)phenyl]-1H-pyrazolo[3,4-b]pyridin-5-yl}-6,7,8,9-tetrahydro-5H-benzo[7]annulen-7-yl]-3-oxa-6-azabicyclo[3.1.1]heptane]: below 100 nM.

The term IC50 denotes the concentration that gives 50% inhibition. The low end stands for greater potency, the high end for weaker potency.
